{"source": "patent US20160095923A1", "about": "“ORAL COMPOSITION COMPRISNG (+)-CATECHIN” (VALORE, priority 2013, published 2016)", "key": {"[1]": {"assay": "Bioavailability after oral administration in human beings (free monomeric (+)-catechin in plasma, LC-MS/MS)", "protocol": "(§1) The experimental results described below were obtained on the basis of a study carried out in healthy human beings and in healthy Wistar rats weighing approximately 250 grams.\n(§2) With regard to taking the blood samples from the rats and from the human beings, the blood was collected in tubes internally coated with EDTA and was then centrifuged at 3000 rpm (revolutions per minute) at ambient temperature for 45 min, and then for 15 min at a temperature of 4° C. The plasma was then collected and stored at −70° C. before analysis.\n(§3) The analytical technique (LC-MS/MS for Liquid Chromatography coupled to tandem Mass Spectrometry) for measuring the active substance in the blood was based on the method described by Mata-Bilbao et al., published in 2007 in the Journal of Agricultural and Food Chemistry, volume 55, page 8857.\n(§4) The free (+)-catechin was extracted from the plasma with a solution of phosphoric acid, EDTA and ascorbic acid and was then purified by SPE (solid phase extraction); in particular, it is an Oasis™ HLB extraction which is analyzed by LC-MS/MS. The quantification was carried out according to a standard calibration procedure with (+/−)-catechin-2,3,4-^13C3 as internal standard (SI).\nThis complex salt is administered to a group A of 5 healthy volunteers.\nThis ct parameter makes it possible to calculate, from the data of table 1, the bioavailability of the (+)-catechin expressed in ng h/ml."}, "[2]": {"assay": "Bioavailability after oral administration or intravenous injection in Wistar rats (free/total polyphenol in plasma, LC-MS/MS)", "settings": "per os", "protocol": "as §1\nAn acclimation period was observed before beginning the experiments.\nThe rats received an administration per os of a volume of 5 ml of a solution of active product.\nas §2, §3, §4\nThe procedure is identical with regard to the extraction and the quantification of free quercetin or ECGC in the blood.\nWith regard to the extraction and quantification of the total (+)-catechin, the procedure is the same as that applied to the free (+)-catechin, with the exception of the fact that an additional step prior to the purification by SPE is carried out.\nEach of the mixtures is then solubilized in water.\nEach of the mixtures is solubilized in water."}, "Solubility in water": {"assay": "Solubility in water", "type": "physicochemical"}, "rat skin": {"tested_on": "rat skin", "assay": "Total incorporation and incorporation into collagen of 3H-proline in the skin", "type": "in vivo, Wistar rats", "settings": "100 mg/kg by gavage for 5 days", "protocol": "To do this, a study was carried out in vivo on a batch of 24 female Wistar rats weighing from 95 to 115 g, divided into two groups C and D, each of 12 rats. For each group, the radioactive 3H-hydroxyproline, the specific activity of which is 13.6 Ci/10^−3 mol, was administered to all the animals by intraperitoneal injection of proline-L-(5-3H) at a dose, relative to the weight of the individuals, of 1 mCi/kg, which represents an activity in terms of radioactive 3H-proline of 100 μCi/individual.\n6 rats of each group received a treatment based on monomeric (+)-catechin by gavage in a proportion of 100 mg/kg for 5 days before sacrifice. […] The group C received monomeric (+)-catechin hydrochlorolysinate, while the group D received monomeric (+)-catechin ascorbolysinate.\nIn table 8, the level of incorporation is measured by the number of disintegrations of the radioactive 3H-hydroxyproline per minute (dpm) per mg of dry weight. The higher this number, the higher the concentration of 3H-hydroxyproline.\nIn this comparative example, a group E of 12 Wistar rats weighing from 95 to 115 g, in which radioactive 3H-hydroxyproline, the specific activity of which is 13.6 Ci/10^−3 mol, was administered to all the individuals by intraperitoneal injection of proline-L-(5-3H) at a dose, relative to the weight of the individuals, of 1 mCi/kg, which represents an activity in terms of radioactive 3H-proline of 100 ρCi/individual.\n6 rats of each group received a treatment based on pure monomeric (+)-catechin by gavage in a proportion of 100 mg/kg for 5 days before sacrifice.\nIn table 9, the level of incorporation is measured by the number of disintegrations of the radioactive 3H-hydroxyproline per minute (dpm) per mg of dry weight. The higher this number, the higher the concentration of 3H-hydroxyproline."}, "[3]": {"settings": "group B, oral 1 g pure catechin, free catechin"}, "[4]": {"settings": "free catechin, dose equivalent to 100 mg/kg catechin, 5 rats"}, "[5]": {"settings": "free catechin, equivalent to 25 mg/kg, 3 rats (comparative example 4)"}, "[6]": {"settings": "free catechin, equivalent to 25 mg/kg, 5 rats, mixture dissolved in water (comparative examples 6-9)"}, "[7]": {"settings": "total (+)-catechin, equivalent to 25 mg/kg, 3 rats"}}}
{"smiles": "Oc1cc(O)c2c(c1)O[C@H](c1ccc(O)c(O)c1)[C@@H](O)C2", "note": "[CP, (+)-catechin]", "values": [{"measurement": "plasma concentration (cc) of free monomeric (+)-catechin", "setting": "[1]; group B, oral 1 g pure catechin, T 0.5 h", "value": "59 ± 61", "unit": "ng/mL"}, {"measurement": "plasma concentration (cc) of free monomeric (+)-catechin", "setting": "[1]; group B, oral 1 g pure catechin, T 1 h", "value": "266 ± 147", "unit": "ng/mL"}, {"measurement": "plasma concentration (cc) of free monomeric (+)-catechin", "setting": "[1]; group B, oral 1 g pure catechin, T 2 h", "value": "230 ± 87", "unit": "ng/mL"}, {"measurement": "plasma concentration (cc) of free monomeric (+)-catechin", "setting": "[1]; group B, oral 1 g pure catechin, T 3 h", "value": "226 ± 38", "unit": "ng/mL"}, {"measurement": "plasma concentration (cc) of free monomeric (+)-catechin", "setting": "[1]; group B, oral 1 g pure catechin, T 4 h", "value": "128 ± 51", "unit": "ng/mL"}, {"measurement": "plasma concentration (cc) of free monomeric (+)-catechin", "setting": "[1]; group B, oral 1 g pure catechin, T 6 h", "value": "27 ± 13", "unit": "ng/mL"}, {"measurement": "T (max)", "setting": "[1]; [3]", "value": 1.20, "unit": "h"}, {"measurement": "ct (total concentration, area under curve over 6 h)", "setting": "[1]; [3]", "value": "904 ± 163", "unit": "ng·h/mL"}, {"measurement": "c (max)", "setting": "[1]; oral 1 g pure catechin, free catechin", "value": 280, "unit": "ng/mL"}, {"measurement": "T (max)", "setting": "[1]; oral, humans, as stated in summary text", "value": 1.33, "unit": "h"}, {"measurement": "c (max) related to 0.92 g of pure (+)-catechin", "setting": "[1]; oral, scaled from 1 g to 0.92 g dose", "value": 258, "unit": "ng/mL"}, {"measurement": "ct related to 0.92 g of pure (+)-catechin", "setting": "[1]; oral, scaled from 1 g to 0.92 g dose, listed as pure (+)-catechin", "value": "832 ± 150", "unit": "ng·h/mL"}, {"measurement": "Δct (difference of ct to CP)", "setting": "[2]; free catechin, dose equivalent to 100 mg/kg catechin", "value": 0, "unit": "%"}, {"measurement": "T (max)", "setting": "[2]; [4]", "value": 1, "unit": "h"}, {"measurement": "c (max)", "setting": "[2]; [4]", "value": 716, "unit": "ng/mL"}, {"measurement": "ct", "setting": "[2]; [4]", "value": "96 238 ng min/ml"}, {"measurement": "Δct (difference of ct to CP)", "setting": "[2]; free catechin, equivalent to 25 mg/kg (comparative example 4)", "value": 0, "unit": "%"}, {"measurement": "Δct (difference of ct to CP)", "setting": "[2]; free catechin, equivalent to 25 mg/kg (comparative examples 7-9)", "value": 0, "unit": "%"}, {"measurement": "T (max)", "setting": "[2]; [5]", "value": 0.5, "unit": "h"}, {"measurement": "c (max)", "setting": "[2]; [5]", "value": 154, "unit": "ng/mL"}, {"measurement": "ct", "setting": "[2]; [5]", "value": "21 145 ng min/ml"}, {"measurement": "T (max)", "setting": "[2]; [6]", "value": 1, "unit": "h"}, {"measurement": "c (max)", "setting": "[2]; [6]", "value": 580, "unit": "ng/mL"}, {"measurement": "Δct (difference of ct to CP)", "setting": "[2]; total (+)-catechin, equivalent to 25 mg/kg", "value": 0, "unit": "%"}, {"measurement": "T (max)", "setting": "[2]; [7]", "value": 0.5, "unit": "h"}, {"measurement": "c (max)", "setting": "[2]; [7]", "value": 2200, "unit": "ng/mL"}, {"measurement": "ct", "setting": "[2]; [7]", "value": "273 875 ng min/ml"}, {"measurement": "solubility in water", "setting": "Solubility in water; at 20° C.", "value": 0.9, "unit": "g per liter"}, {"measurement": "solubility in water, times lower than in the form of a complex", "setting": "Solubility in water; pure catechin versus complex with basic amino acid", "value": 400, "unit": "times"}, {"measurement": "increase in the level of incorporation versus control", "setting": "rat skin", "value": "+16%"}, {"measurement": "level of incorporation into collagen (IC) of 3H-hydroxyproline in rat skin", "setting": "rat skin; treated subgroup", "value": "1124 ± 51", "unit": "dpm/mg"}, {"measurement": "level of total incorporation (IT) of 3H-hydroxyproline in rat skin", "setting": "rat skin; treated subgroup", "value": "5689 ± 410", "unit": "dpm/mg"}]}
